Reference: patent US20240207253A1, “Inhibitors of CDR1 for Reversal of Azole Drug Resistance in Fungal Infections” (UNM RAINFOREST INNOVATIONS, priority 2021, published 2024)
Each block holds one molecule with its values, some of them ahead of it.

Legend:
Cdr1p-GFP = Cdr1p-GFP whole cell fluorescence-based flow cytometry assay (primary screen and dose response); parameters: species or system C. albicans; details: 10 μM, positive control, isolate 5674 CDR1-GFP
Excerpt: Utilizing the novel approach of inhibition of CDR1 (Cdr1p) expression, initial experiments were directed to screening libraries of small molecules using a high-throughput whole cell fluorescence-based flow cytometry assay to identify agents that inhibit expression of CDR1-GFP in an azole-resistant C. albicans strain.
Each sample in the scaffold ranking screen contains only mixtures of compounds with the shared core scaffold. All compounds in a specific mixture are represented in approximately equal molar concentrations. The inventors performed the screen using the C. albicans azole-resistant, clinical isolate 5674, which was modified to carry a CDR1 allele tagged with GFP-encoding sequence. Modulation of Cdr1p-GFP levels in response to scaffold mixtures was assessed relative to basal levels (Response Ratio), from which scaffolds were ranked. […] The inventors used tacrolimus at 10 μM concentration as positive control in all screening assays.
The assay readout, GFP fluorescence levels as detected by a flow cytometer, is directly related to the levels of Cdr1p of the cell. Thus, flow cytometry data from each screen provides direct evidence that Cdr1p is modulated by hit compounds. […] False-positive hits were identified in follow-up dose-response assays where the effect of serial dilutions of each compound on Cdr1p-GFP levels was assessed.

[1] = test system: C. glabrata AR Bank #0314; experiment: CLSI microbroth dilution checkerboard assay with fluconazole; format: cell-based; details: Nakaseomyces glabratus; fluconazole alone
Experimental: (§1) Overexpression of Cdr1p has been implicated in azole resistance in many fluconazole-resistant fungal pathogens. […] The inventors used the CLSI microbroth dilution method of antifungal susceptibility testing in a checkerboard assay format, where serial 2-fold dilutions of FLC (from 64 μg/ml) were tested in combination with serial 2-fold dilutions of a candidate hit compound (from 50 μg/ml). […] The data from three biological replicates was next used to assess synergy between each compound of interest and FLC. For these purposes, the inventors used the program SynScreen, which extrapolates non-linear fits of dose-response data to determine synergy using the Bliss independence and Loewe additivity analysis models. […] The Bliss Beta coefficient that the program calculates for all combinations further describes potential synergism (if >1), antagonism (if <1), or an additive effect (equal to 1).
(§2) For the purposes of reporting the effect of the test compound on FLC potentiation, the inventors excluded from analyses rows of combinations where TPIML compound alone affects yeast growth. C. krusei are intrinsically resistant to azoles and is predominantly due to a significant reduction of inhibition of the target, cytochrome P450 lanosterol 14α-demethylase, though the role of increased expression of the CaCdr1p homolog in resistance has also been described.

[2] = test system: C. krusei reference strain, ATCC 6258; experiment: as above; format: cell-based; details: Pichia kudriavzevii, ATCC6258; fluconazole alone
Experimental: as §1, §2

[3] = test system: C. parapsilosis AR Bank #0337; experiment: as above; format: cell-based; details: Lodderomyces parapsilosis; fluconazole alone
Experimental: as §1, §2

C. albicans strain 5674 = experiment: Adenylate kinase (AK) release assay on assay supernatant; format: cell-based; details: caspofungin 50 ng/ml, positive control
Experimental: In addition to the output from the dose-response assays, we included an experimental step designed to identify compounds with fungicidal potential. Specifically, the inventors used the assay supernatant to interrogate for the presence of adenylate kinase (AK), an enzyme that is released from the cells when the cell wall or plasma membrane integrity is compromised. Low-dose caspofungin (50 ng/ml), an echinocandin known for its antifungal property due to disruption of the cell wall, was used as a positive control.

Structure (SMILES): C=CC[C@@H]1/C=C(\C)C[C@H](C)C[C@H](OC)[C@H]2O[C@@](O)(C(=O)C(=O)N3CCCC[C@H]3C(=O)O[C@H](/C(C)=C/[C@@H]3CC[C@@H](O)[C@H](OC)C3)[C@H](C)[C@@H](O)CC1=O)[C@H](C)C[C@@H]2OC [tacrolimus]
Response Ratio (Cdr1p-GFP levels relative to basal levels) (Cdr1p-GFP): 0.8

MIC50 [1]: 64 µg/mL | MIC50 [2]: 8 µg/mL | MIC50 [3]: 64 µg/mL
Structure (SMILES): OC(Cn1cncn1)(Cn1cncn1)c1ccc(F)cc1F [fluconazole]

Structure (SMILES): CC[C@H](C)C[C@H](C)CCCCCCCCC(=O)N[C@H]1C[C@@H](O)[C@@H](NCCN)NC(=O)[C@@H]2[C@@H](O)CCN2C(=O)[C@H]([C@H](O)CCN)NC(=O)[C@H]([C@H](O)[C@@H](O)c2ccc(O)cc2)NC(=O)[C@@H]2C[C@@H](O)CN2C(=O)[C@H]([C@@H](C)O)NC1=O [caspofungin]
AK fold-increase (C. albicans strain 5674): 27
